Experimental data from ChEMBL document CHEMBL3044826, “Design, synthesis and biological evaluation of some novel substituted 2-mercapto-3-phenethylquinazolines as antitumor agents” (2013).

Legend:
Assay type in all cases: functional
[1] = test system: NCI-H322M; assay: Cytotoxicity against Homo sapiens (human) NCI-H322M cells assessed as growth inhibition at 10 uM after 48 hr by coulter counter analysis; conditions: read-out: GI
[2] = test system: MDA-MB-435; assay: Cytotoxicity against Homo sapiens (human) MDA-MB-435 cells assessed as growth inhibition at 10 uM after 48 hr by coulter counter analysis; conditions: MDA-MB-435, 48 h, read-out: GI
[3] = test system: UACC-257; assay: Cytotoxicity against Homo sapiens (human) UACC257 cells assessed as growth inhibition at 10 uM after 48 hr by coulter counter analysis; conditions: UACC-257, 48 h, read-out: GI
[4] = test system: 786-0; assay: Cytotoxicity against Homo sapiens (human) 786-0 cells assessed as growth inhibition at 10 uM after 48 hr by coulter counter analysis; conditions: 786-0, 48 h, read-out: GI
[5] = test system: HCT-15; assay: Cytotoxicity against Homo sapiens (human) HCT15 cells assessed as growth inhibition at 10 uM after 48 hr by coulter counter analysis; conditions: HCT-15, 48 h, read-out: GI
[6] = test system: NCI-H522; assay: Cytotoxicity against Homo sapiens (human) NCI-H522 cells assessed as growth inhibition at 10 uM after 48 hr by coulter counter analysis; conditions: NCI-H522, 48 h, read-out: GI
[7] = test system: ACHN; assay: Cytotoxicity against Homo sapiens (human) ACHN cells assessed as growth inhibition at 10 uM after 48 hr by coulter counter analysis; conditions: read-out: GI
[8] = test system: MDA-MB-231; assay: Cytotoxicity against Homo sapiens (human) MDA-MB-231 cells assessed as growth inhibition at 10 uM after 48 hr by coulter counter analysis; conditions: MDA-MB-231, 48 h, read-out: GI
[9] = test system: MCF7; assay: Cytotoxicity against Homo sapiens (human) MCF7 cells assessed as growth inhibition at 10 uM after 48 hr by coulter counter analysis; conditions: MCF7, 48 h, read-out: GI
[10] = test system: IGROV-1; assay: Cytotoxicity against Homo sapiens (human) IGROV1 cells assessed as growth inhibition at 10 uM after 48 hr by coulter counter analysis; conditions: IGROV-1, 48 h, read-out: GI
[11] = test system: U-251; assay: Cytotoxicity against Homo sapiens (human) U251 cells assessed as growth inhibition at 10 uM after 48 hr by coulter counter analysis; conditions: U-251, 48 h, read-out: GI
[12] = test system: T47D; assay: Cytotoxicity against Homo sapiens (human) T47D cells assessed as growth inhibition at 10 uM after 48 hr by coulter counter analysis; conditions: read-out: GI
[13] = test system: NCI-H226; assay: Cytotoxicity against Homo sapiens (human) NCI-H226 cells assessed as growth inhibition at 10 uM after 48 hr by coulter counter analysis; conditions: NCI-H226, 48 h, read-out: GI
[14] = test system: RXF 393; assay: Cytotoxicity against Homo sapiens (human) RXF393 cells assessed as growth inhibition at 10 uM after 48 hr by coulter counter analysis; conditions: RXF 393, 48 h, read-out: GI
[15] = test system: OVCAR-5; assay: Cytotoxicity against Homo sapiens (human) OVCAR5 cells assessed as growth inhibition at 10 uM after 48 hr by coulter counter analysis; conditions: OVCAR-5, 48 h, read-out: GI
[16] = test system: Hs-578T; assay: Cytotoxicity against Homo sapiens (human) Hs578T cells assessed as growth inhibition at 10 uM after 48 hr by coulter counter analysis; conditions: read-out: GI
[17] = test system: SK-MEL-28; assay: Cytotoxicity against Homo sapiens (human) SK-MEL-28 cells assessed as growth inhibition at 10 uM after 48 hr by coulter counter analysis; conditions: SK-MEL-28, 48 h, read-out: GI
[18] = test system: NCI-H460; assay: Cytotoxicity against Homo sapiens (human) NCI-H460 cells assessed as growth inhibition at 10 uM after 48 hr by coulter counter analysis; conditions: NCI-H460, 48 h, read-out: GI
[19] = test system: CCRF-CEM; assay: Cytotoxicity against Homo sapiens (human) CCRF-CEM cells assessed as growth inhibition at 10 uM after 48 hr by coulter counter analysis; conditions: read-out: GI

`O=C(CSc1nc2ccccc2c(=O)n1CCc1ccccc1)c1ccccc1` was tested, and the inhibition of growth at 10 µM [1] was < 10%, the inhibition of growth at 10 µM [2] was < 10% and the inhibition of growth at 10 µM [3] was < 10%. The inhibition of growth at 10 µM [4] was < 10%, the inhibition of growth at 10 µM [5] was < 10% and the inhibition of growth at 10 µM [6] was 11%. The inhibition of growth at 10 µM [7] was < 10%, the inhibition of growth at 10 µM [8] was 11% and the inhibition of growth at 10 µM [9] was < 10%. The inhibition of growth at 10 µM [10] was < 10%, the inhibition of growth at 10 µM [11] was 11% and the inhibition of growth at 10 µM [12] was < 10%. For the same molecule, the inhibition of growth at 10 µM [13] was < 10%, the inhibition of growth at 10 µM [14] was < 10% and the inhibition of growth at 10 µM [15] was < 10%. The inhibition of growth at 10 µM [16] was < 10%, the inhibition of growth at 10 µM [17] was < 10% and the inhibition of growth at 10 µM [18] was < 10%.
With `O=c1c2ccccc2nc(SCc2ccc([N+](=O)[O-])cc2)n1CCc1ccccc1` the inhibition of growth at 10 µM [1] was < 10%, the inhibition of growth at 10 µM [2] was < 10% and the inhibition of growth at 10 µM [3] was < 10%. For the same molecule, the inhibition of growth at 10 µM [4] was < 10%, the inhibition of growth at 10 µM [5] was < 10% and the inhibition of growth at 10 µM [6] was < 10%. For the same molecule, the inhibition of growth at 10 µM [7] was < 10%, the inhibition of growth at 10 µM [8] was 19% and the inhibition of growth at 10 µM [9] was < 10%. For the same molecule, the inhibition of growth at 10 µM [10] was < 10%, the inhibition of growth at 10 µM [11] was < 10% and the inhibition of growth at 10 µM [12] was 15%. For the same molecule, the inhibition of growth at 10 µM [14] was < 10%, the inhibition of growth at 10 µM [15] was < 10% and the inhibition of growth at 10 µM [16] was 19%. The inhibition of growth at 10 µM [17] was < 10% and the inhibition of growth at 10 µM [18] was < 10%.
For `CSc1nc2ccccc2c(=O)n1CCc1ccccc1`, the inhibition of growth at 10 µM [1] was < 10%, the inhibition of growth at 10 µM [2] was 47% and the inhibition of growth at 10 µM [3] was < 10%. For the same molecule, the inhibition of growth at 10 µM [5] was 39%, the inhibition of growth at 10 µM [6] was < 10% and the inhibition of growth at 10 µM [7] was 34%. The inhibition of growth at 10 µM [8] was 30%, the inhibition of growth at 10 µM [9] was 34% and the inhibition of growth at 10 µM [10] was 24%. The inhibition of growth at 10 µM [11] was 12%, the inhibition of growth at 10 µM [12] was 59% and the inhibition of growth at 10 µM [13] was 11%. The inhibition of growth at 10 µM [14] was 30%, the inhibition of growth at 10 µM [15] was < 10% and the inhibition of growth at 10 µM [16] was 14%. The inhibition of growth at 10 µM [17] was < 10% and the inhibition of growth at 10 µM [18] was < 10%.
With `O=c1c2ccccc2nc(SCc2nnc(S)n2Cc2ccccc2)n1CCc1ccccc1` the inhibition of growth at 10 µM [1] was < 10%, the inhibition of growth at 10 µM [2] was < 10% and the inhibition of growth at 10 µM [3] was < 10%. For the same molecule, the inhibition of growth at 10 µM [4] was < 10%, the inhibition of growth at 10 µM [5] was < 10% and the inhibition of growth at 10 µM [6] was 46%. The inhibition of growth at 10 µM [7] was < 10%, the inhibition of growth at 10 µM [8] was 28% and the inhibition of growth at 10 µM [9] was 27%. The inhibition of growth at 10 µM [10] was < 10%, the inhibition of growth at 10 µM [11] was < 10% and the inhibition of growth at 10 µM [12] was 38%. For the same molecule, the inhibition of growth at 10 µM [13] was 22%, the inhibition of growth at 10 µM [14] was < 10% and the inhibition of growth at 10 µM [15] was < 10%. The inhibition of growth at 10 µM [16] was < 10%, the inhibition of growth at 10 µM [17] was < 10% and the inhibition of growth at 10 µM [19] was 13%.
In the case of `O=c1c2ccccc2nc(SCCN2CCCCC2)n1CCc1ccccc1`, the inhibition of growth at 10 µM [1] is reported as < 10%, the inhibition of growth at 10 µM [2] is reported as < 10% and the inhibition of growth at 10 µM [3] is reported as < 10%. It also gave an inhibition of growth at 10 µM [4] of 14%, an inhibition of growth at 10 µM [5] of 20% and an inhibition of growth at 10 µM [6] of 11%. For the same molecule, the inhibition of growth at 10 µM [7] was < 10%, the inhibition of growth at 10 µM [8] was 34% and the inhibition of growth at 10 µM [9] was 37%. For the same molecule, the inhibition of growth at 10 µM [10] was 22%, the inhibition of growth at 10 µM [11] was 14% and the inhibition of growth at 10 µM [12] was 35%. The inhibition of growth at 10 µM [13] was < 10%, the inhibition of growth at 10 µM [14] was 19% and the inhibition of growth at 10 µM [15] was 12%. The inhibition of growth at 10 µM [16] was < 10%, the inhibition of growth at 10 µM [17] was < 10% and the inhibition of growth at 10 µM [18] was < 10%.
